Source: patent US7951942B2, “Crystals of phenylalanine derivatives and production methods thereof” (Ajinomoto Co., Inc., priority 2003, dated 2011)
One block for each compound: values may come before it.

What was measured:
[1] = Temperature changes of the powder X-ray diffraction patterns (crystal transition, T-G curves); assay type: physicochemical; details: from T-G curves (FIG. 10)
Experimental: Measurement of the Temperature Changes of the Powder X-Ray Diffraction Patterns of the α-Type, γ-Type, ε-Type, and η-Type Crystals
• (1) The measuring method and conditions
The measurement was conducted in the same conditions as those of the above measurement of the powder X-ray diffraction patterns.

[2] = Water adsorption of the crystals (vapor adsorption isotherm); assay type: physicochemical; details: 25° C.
Experimental: The Measuring Method of the Water Adsorption of the Crystals (Creation of the Vapor Adsorption Isotherm)
• (1) The measuring method of water adsorption amount and conditions
100 mg of each of the above obtained α-type, γ-type and ε-type crystals were weighed and vacuum dried at 50° C. overnight. Then, under the constant temperature of 25° C., the water adsorption amount of the crystals was determined with a full automatic vapor adsorption measuring apparatus (BELSORP-18, BEL Japan, Inc.) (Mitsuiki et al., J. Agric. Food Chem., vol. 46, no. 9, pp. 3528-3534 (1998)). • (2) The measurement results

order of thermodynamic stability of crystal forms at room temperature ([1]; room temperature): α-type>η-type>γ-type>ε-type>θ-type | water adsorption (in words) ([2]; listed as α-type): low water adsorption
SMILES: COC(=O)[C@H](Cc1ccc(-n2c(=O)c3cc(N(C)C)ccc3n(C)c2=O)cc1)NC(=O)c1c(Cl)cccc1Cl [α-type crystal]

thermodynamic stability in high temperature range ([1]; high temperature range): stably exists
SMILES: COC(=O)[C@H](Cc1ccc(-n2c(=O)c3cc(N(C)C)ccc3n(C)c2=O)cc1)NC(=O)c1c(Cl)cccc1Cl [θ-type crystal]

water adsorption (in words) ([2]; listed as γ-type): particularly low water adsorption
SMILES: COC(=O)[C@H](Cc1ccc(-n2c(=O)c3cc(N(C)C)ccc3n(C)c2=O)cc1)NC(=O)c1c(Cl)cccc1Cl [γ-type crystal]

water adsorption (in words) ([2]; listed as ε-type): particularly low water adsorption
SMILES: COC(=O)[C@H](Cc1ccc(-n2c(=O)c3cc(N(C)C)ccc3n(C)c2=O)cc1)NC(=O)c1c(Cl)cccc1Cl [ε-type crystal]
